Legend:
Type in all cases: cell-based
human TLR7 = target: T1, human TLR7 (Homo sapiens, UniProt Q9NYK1); experiment: TLR7 inhibition reporter assay (HEK-Blue SEAP); conditions: HEK-Blue cells overexpressing human TLR7, stimulated with gardiquimod 7.5 μM, 22 hour incubation
T1 construct: host or cells: HEK-Blue cells
T1 sequence (Q9NYK1 27-1049): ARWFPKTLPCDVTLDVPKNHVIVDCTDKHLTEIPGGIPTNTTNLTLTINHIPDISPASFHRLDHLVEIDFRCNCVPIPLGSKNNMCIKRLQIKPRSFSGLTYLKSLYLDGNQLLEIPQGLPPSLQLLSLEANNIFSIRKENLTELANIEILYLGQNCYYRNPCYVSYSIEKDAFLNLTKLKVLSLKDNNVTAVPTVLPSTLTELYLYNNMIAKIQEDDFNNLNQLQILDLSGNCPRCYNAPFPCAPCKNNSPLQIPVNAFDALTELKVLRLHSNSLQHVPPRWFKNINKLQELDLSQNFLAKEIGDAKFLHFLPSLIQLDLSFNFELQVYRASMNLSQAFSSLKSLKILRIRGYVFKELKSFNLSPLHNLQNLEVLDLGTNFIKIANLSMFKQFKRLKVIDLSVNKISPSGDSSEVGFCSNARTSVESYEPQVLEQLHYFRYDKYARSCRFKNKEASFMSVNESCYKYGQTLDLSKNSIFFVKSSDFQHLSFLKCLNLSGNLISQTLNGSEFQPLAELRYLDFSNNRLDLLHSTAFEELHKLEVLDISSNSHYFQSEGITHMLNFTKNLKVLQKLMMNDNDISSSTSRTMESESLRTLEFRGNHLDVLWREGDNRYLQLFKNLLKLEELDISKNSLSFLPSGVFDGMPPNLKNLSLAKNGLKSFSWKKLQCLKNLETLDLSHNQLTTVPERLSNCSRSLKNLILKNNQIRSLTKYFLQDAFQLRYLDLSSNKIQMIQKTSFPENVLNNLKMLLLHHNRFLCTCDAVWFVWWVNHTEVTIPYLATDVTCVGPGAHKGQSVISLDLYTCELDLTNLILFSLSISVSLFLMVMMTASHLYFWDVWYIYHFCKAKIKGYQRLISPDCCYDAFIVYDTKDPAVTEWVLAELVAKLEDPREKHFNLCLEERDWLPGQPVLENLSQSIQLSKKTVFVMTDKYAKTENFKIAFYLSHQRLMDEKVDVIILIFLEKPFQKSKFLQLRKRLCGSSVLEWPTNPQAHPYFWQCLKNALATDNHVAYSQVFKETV
Procedure: (§1) TLR7/8/9 Inhibition Reporter Assays
(§2) HEK-Blue™-cells (Invivogen) overexpressing human TLR7, TLR8 or TLR9 receptors were used for screening inhibitors of these receptors using an inducible SEAP (secreted embryonic alkaline phosphatase) reporter gene under the control of the IFN-β minimal promoter fused to five NF-κB and AP-1-binding sites. Briefly, cells are seeded into Greiner 384 well plates (15000 cells per well for TLR7, 20.000 for TLR8 and 25,000 for TLR9) and then treated with test compounds in DMSO to yield a final dose response concentration range of 0.05 nM-50 μM. After a 30 minute compound pre-treatment at room temperature, the cells are then stimulated with a TLR7 ligand (gardiquimod at a final concentration of 7.5 μM), TLR8 ligand (R848 at a final concentration of 15.9 μM) or TLR9 ligand (ODN2006 at a final concentration of 5 nM) to activate NF-κB and AP-1 which induce the production of SEAP. After a 22 hour incubation at 37° C., 5% CO2, SEAP levels are determined with the addition of HEK-Blue™ Detection reagent (Invivogen), a cell culture medium that allows for detection of SEAP, according to manufacturer's specifications. The percent inhibition is determined as the % reduction in the HEK-Blue signal present in wells treated with agonist plus DMSO alone compared to wells treated with a known inhibitor.

human TLR8 = target: T2, human TLR8 (Homo sapiens, UniProt Q9NR97); experiment: TLR8 inhibition reporter assay (HEK-Blue SEAP); conditions: HEK-Blue cells overexpressing human TLR8, stimulated with R848 15.9 μM, 22 hour incubation
T2 construct: host or cells: HEK-Blue cells
T2 sequence (Q9NR97 27-1041): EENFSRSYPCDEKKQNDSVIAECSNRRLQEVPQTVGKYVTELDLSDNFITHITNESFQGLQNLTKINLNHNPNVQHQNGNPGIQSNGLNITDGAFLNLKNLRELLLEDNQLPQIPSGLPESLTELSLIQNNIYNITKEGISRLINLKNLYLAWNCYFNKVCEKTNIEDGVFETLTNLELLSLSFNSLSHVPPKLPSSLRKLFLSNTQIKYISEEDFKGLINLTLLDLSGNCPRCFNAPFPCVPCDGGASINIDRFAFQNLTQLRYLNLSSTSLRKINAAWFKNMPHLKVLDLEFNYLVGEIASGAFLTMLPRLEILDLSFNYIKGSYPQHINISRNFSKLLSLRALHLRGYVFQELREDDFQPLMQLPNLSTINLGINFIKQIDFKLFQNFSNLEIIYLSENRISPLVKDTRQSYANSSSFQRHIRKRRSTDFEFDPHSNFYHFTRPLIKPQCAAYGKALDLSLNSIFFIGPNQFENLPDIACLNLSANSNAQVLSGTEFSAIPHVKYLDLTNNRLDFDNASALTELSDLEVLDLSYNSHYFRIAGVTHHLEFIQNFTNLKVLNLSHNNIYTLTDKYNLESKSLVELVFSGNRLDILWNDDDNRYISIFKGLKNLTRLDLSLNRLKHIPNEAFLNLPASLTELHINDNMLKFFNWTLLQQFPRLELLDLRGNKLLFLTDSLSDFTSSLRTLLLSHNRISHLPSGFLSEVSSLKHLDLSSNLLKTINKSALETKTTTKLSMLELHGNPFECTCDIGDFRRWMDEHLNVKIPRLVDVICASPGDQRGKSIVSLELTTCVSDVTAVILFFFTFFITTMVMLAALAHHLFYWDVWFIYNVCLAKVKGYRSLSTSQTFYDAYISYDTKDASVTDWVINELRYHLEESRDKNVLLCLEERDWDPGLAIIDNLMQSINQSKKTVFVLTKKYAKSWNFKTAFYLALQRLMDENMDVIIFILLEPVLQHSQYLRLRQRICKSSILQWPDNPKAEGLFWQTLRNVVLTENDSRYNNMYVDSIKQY
Procedure: as §1, §2

human TLR9 = target: T3, human TLR9 (Homo sapiens, UniProt Q9NR96); experiment: TLR9 inhibition reporter assay (HEK-Blue SEAP); conditions: HEK-Blue cells overexpressing human TLR9, stimulated with ODN2006 5 nM, 22 hour incubation
T3 construct: host or cells: HEK-Blue cells
T3 sequence (Q9NR96 26-1032): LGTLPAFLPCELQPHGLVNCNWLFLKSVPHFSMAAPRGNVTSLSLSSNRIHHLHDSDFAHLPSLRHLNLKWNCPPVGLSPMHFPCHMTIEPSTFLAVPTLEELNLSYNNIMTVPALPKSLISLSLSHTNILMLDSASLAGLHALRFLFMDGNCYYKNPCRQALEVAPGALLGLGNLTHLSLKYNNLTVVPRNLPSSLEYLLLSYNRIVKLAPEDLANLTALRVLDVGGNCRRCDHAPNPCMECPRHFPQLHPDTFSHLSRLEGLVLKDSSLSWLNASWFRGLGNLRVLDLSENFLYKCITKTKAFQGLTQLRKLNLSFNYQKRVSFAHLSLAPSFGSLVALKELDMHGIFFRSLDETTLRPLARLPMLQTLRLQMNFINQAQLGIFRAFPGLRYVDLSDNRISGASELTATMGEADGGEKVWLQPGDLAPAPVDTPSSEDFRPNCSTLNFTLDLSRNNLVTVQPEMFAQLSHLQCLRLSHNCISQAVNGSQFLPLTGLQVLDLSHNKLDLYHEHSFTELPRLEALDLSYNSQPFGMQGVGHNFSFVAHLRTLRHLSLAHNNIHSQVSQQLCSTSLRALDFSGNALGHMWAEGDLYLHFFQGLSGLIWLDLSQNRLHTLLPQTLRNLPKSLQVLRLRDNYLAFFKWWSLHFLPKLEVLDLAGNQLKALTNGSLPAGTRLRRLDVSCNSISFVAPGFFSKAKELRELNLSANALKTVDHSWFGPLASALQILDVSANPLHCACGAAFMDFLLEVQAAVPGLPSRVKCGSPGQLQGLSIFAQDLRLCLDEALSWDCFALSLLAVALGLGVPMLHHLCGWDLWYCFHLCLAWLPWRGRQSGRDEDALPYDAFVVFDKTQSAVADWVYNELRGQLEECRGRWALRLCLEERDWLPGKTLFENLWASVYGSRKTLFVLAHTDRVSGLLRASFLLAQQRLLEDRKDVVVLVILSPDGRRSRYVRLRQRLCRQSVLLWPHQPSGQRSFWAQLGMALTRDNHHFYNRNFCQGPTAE
Procedure: as §1, §2

IC50 (human TLR7) [nM]	IC50 (human TLR8) [nM]	IC50 (human TLR9) [nM]	SMILES
2.9	2.1	241	Cc1cc(-c2[nH]c3ccc(OC4CCNCC4)cc3c2C(C)C)cc(C)n1 [Example 1, 2-(2,6-dimethylpyridin-4-yl)-3-isopropyl-5-(piperidin-4-yloxy)-1H-indole]
1	1.6	2140	Cc1cc(-c2[nH]c3ccc(OCCN4CCCC4)cc3c2C(C)C)cn2ncnc12 [Example 2, 6-(3-isopropyl-5-(2-(pyrrolidin-1-yl)ethoxy)-1H-indol-2-yl)-8-methyl-[1,2,4]triazolo[1,5-a]pyridine]
26.4	11	18700	Cc1cc(-c2[nH]c3ccc(OCCN4CCC(F)(F)CC4)cc3c2C(C)C)cn2ncnc12 [Example 3, 6-(5-(2-(4,4-difluoropiperidin-1-yl)ethoxy)-3-isopropyl-1H-indol-2-yl)-8-methyl-[1,2,4]triazolo[1,5-a]pyridine]
> 3130	15.4	> 50000	Cc1cc(-c2[nH]c3ccc(OCCN4CCCC(F)C4)cc3c2C(C)C)cn2ncnc12 (centres unmarked) [Example 4, 6-(5-(2-(3-fluoropiperidin-1-yl)ethoxy)-3-isopropyl-1H-indol-2-yl)-8-methyl-[1,2,4]triazolo[1,5-a]pyridine]
8.1	3.3	37300	Cc1cc(-c2[nH]c3ccc(OCCN4CCOCC4)cc3c2C(C)C)cn2ncnc12 [Example 5, 4-(2-((3-isopropyl-2-(8-methyl-[1,2,4]triazolo[1,5-a]pyridin-6-yl)-1H-indol-5-yl)oxy)ethyl)morpholine]
1.8	4.4	406	Cc1cc(-c2[nH]c3ccc(OCC4CCNCC4)cc3c2C(C)C)cc(C)n1 [Example 6, 2-(2,6-dimethylpyridin-4-yl)-3-isopropyl-5-(piperidin-4-ylmethoxy)-1H-indole]
2.1	2.6	797	Cc1cc(-c2[nH]c3ccc(OCC4CCNCC4)cc3c2C(C)C)cn(C)c1=O [Example 7, 5-(3-isopropyl-5-(piperidin-4-ylmethoxy)-1H-indol-2-yl)-1,3-dimethylpyridin-2(1H)-one]
6.6	13.9	3520	Cc1cc(-c2[nH]c3ccc(O[C@H]4CCCNC4)cc3c2C(C)C)cn(C)c1=O [Example 8, (S)-5-(3-isopropyl-5-(piperidin-3-yloxy)-1H-indol-2-yl)-1,3-dimethylpyridin-2(1H)-one]
0.8	10.6	2270	Cc1cc(-c2[nH]c3ccc(O[C@H]4CCCNC4)cc3c2C(C)C)cn2ncnc12 [Example 9, (S)-6-(3-isopropyl-5-(piperidin-3-yloxy)-1H-indol-2-yl)-8-methyl-[1,2,4]triazolo[1,5-a]pyridine]
	2.6	1810	COc1cc(-c2[nH]c3ccc(OC4CCN(CC(=O)N(C)C)CC4)cc3c2C(C)C)cn2ncnc12 [Example 93, 2-(4-((3-isopropyl-2-(8-methoxy-[1,2,4]triazolo[1,5-a]pyridin-6-yl)-1H-indol-5-yl)oxy)piperidin-1-yl)-N,N-dimethylacetamide]
39.7	8.6		CNC(=O)CN1CCC(Oc2ccc3[nH]c(-c4cn(C)c(=O)c(C)c4C)c(C(C)C)c3c2)CC1 [Example 115, 2-(4-((3-isopropyl-2-(1,4,5-trimethyl-6-oxo-1,6-dihydropyridin-3-yl)-1H-indol-5-yl)oxy)piperidin-1-yl)-N-methylacetamide]
		13600	Cc1cc(-c2[nH]c3ccc(OCc4c[nH]cn4)cc3c2C(C)C)ccn1 [Example 176, 5-((1H-imidazol-4-yl)methoxy)-3-isopropyl-2-(2-methylpyridin-4-yl)-1H-indole]
		> 50000	Cc1cc(-c2[nH]c3ccc(OCc4c[nH]cn4)cc3c2C(C)C)ccn1 [Example 178, 5-((1H-imidazol-4-yl)methoxy)-3-isopropyl-2-(2-methylpyridin-4-yl)-1H-indole]
257	3.9		Cc1cc(-c2[nH]c3ccc(OC4CCN(CCC(F)(F)F)CC4)cc3c2C(C)C)ccn1 [Example 187, 3-isopropyl-2-(2-methylpyridin-4-yl)-5-((1-(3,3,3-trifluoropropyl)piperidin-4-yl)oxy)-1H-indole]

Source: patent US12030878B2 (BRISTOL-MYERS SQUIBB COMPANY, priority 2017, dated 2024)
